# From patent US11076597B2, “High stress resistant plant growth regulator and preparation method and use thereof” (SHANGHAI INSTITUTES FOR BIOLOGICAL SCIENCES, CHINESE …, priority 2015, dated 2021)
# “Also recorded” adds a separate entry of the source.
# Tests used:
# Assay type in all cases: in vivo
# soybean = assay: Soil drought experiment, soybean
# Procedure: (§1) Soybean, cotton and wheat for leaf transpiration experiments were used simultaneously for soil drought experiments, each pot was filled with the same weight of soil to reduce experimental error. All the soybean plants were subjected to a long-day culture at 26° C. 14 days after sowing, watering was stopped and the plants with the consistent growth condition were selected for drought treatment. At the start of the drought, a solution containing 0.1% Tween-20 and 20 μM (+)-ABA/0224/0304 or 0.1% Tween-20 and 0.05% DMSO (control) was sprayed onto the leaf surface once with a spray amount of 4 ml solution/pot. Meanwhile, the position of the pot was changed and re-watered 6 days after the drought, and the photos were taken 1 day after re-watering. The drought experiment of cotton was similar to that of soybeans, watering was stopped 25 days after sowing, the plants with the consistent growth condition were selected for drought treatment. At the start of the drought, a solution containing 0.1% Tween-20 and 20 μM (+)-ABA/0224 or 0.1% Tween-20 and 0.05% DMSO (control) was sprayed onto the leaf surface once with a spray amount of 4 ml solution/pot, and then sprayed once every 3 days. Meanwhile, the position of the pot was changed and re-watered 6 days after the drought, and the photos were taken before re-watering and 1 day after re-watering. In the drought experiment of wheat, the wheat with the consistent growth condition 16 days after sowing was selected for the drought treatment, at the start of the drought, a solution with 0.1% Tween-20 and 100 μM (+)-ABA/0224 or 0.1% Tween-20 and 0.05% DMSO (control) was sprayed once, and then sprayed once every 3 days with a spray amount of 4 ml/pot. Meanwhile, the position of the pot was changed and the photos were taken 6 days after the drought.
# Soil drought experiments used for compound 0428 on soybean and maize were similar to that used for compound 0224 on soybeans, with only one plant contained in each pot. All soybean plants were long-day cultured at 26° C. […]
# [1] = tested on: Arabidopsis thaliana Col-0 ecotype; assay: Soil drought experiment, Arabidopsis; conditions: for growth after drought: 5 μM spray, two weeks after the drought, FIG. 12; for survival/growth after drought: 5 μM sprayed once every week, twice in total, four weeks of drought, FIG. 7
# Procedure: Seeds of Arabidopsis Col-0 ecotype were sterilized with NaClO and then sown on ½ MS solid medium at 4° C. for 3 days of vernalization. After 6 days of growing, the well-grown seedlings having uniform size were selected and transferred into 8×7×6 cm^3 pots. Each pot was filled with the same weight of soil and same number of plants (six plants) was transferred to reduce experimental error. All the pots were subjected to a short-day culture at 22° C. After two weeks, watering was stopped for drought treatment. A solution containing 0.05% Tween-20 and 5 μM 0224/0706/0715/0428 or 0.05% Tween-20 and 0.05% DMSO (control) was sprayed onto the leaf surface once per week with a spray amount of 2 ml solution/pot. The position of the flowerpot was changed every day during the process of drought to reduce the error caused by environmental factors. During the whole drought period, the solution was sprayed twice in total and photos were recorded after four weeks.
# Arabidopsis thaliana Col-0 ecotype that had been growing in the soil for two weeks was stopped watering, the leaf was sprayed with a solution containing 5 μM compound 0224/0706/0715 or 0.05% DMSO (control) once every week during the drought, with a spray amount of 2 ml solution/pot, twice in total and a 0.05% (v/v) surfactant Tween-20 was added to the solution to enhance the penetrating effect of the spray agent on the leaf epidermis. […] The same method was performed for drought treatment and (+)-ABA or 0428-treated Arabidopsis was photographed two weeks after the drought.
# cotton = assay: Leaf transpiration experiment, cotton; conditions: 20 μM spray 25 days after sowing, two days after spraying; FIG. 6
# Procedure: ABA synthesis mutant aba2-1 was used in Arabidopsis leaf transpiration experiment. […] Therefore, this mutant is used to exclude the effect of endogenous ABA on the transpiration experiment. The plants were sprayed with a solution containing 0.05% tween-20 and corresponding concentrations of (+)-ABA/0224/0304/0706/0715/0428 or 0.05% Tween-20 and 0.05% DMSO (control) after three weeks of continuous watering with an amount of 1.2 ml/pot. Leaf transpiration experiments of soybeans were conducted at 26° C. with long-day lighting and soybeans were sprayed with a solution containing 0.1% tween-20 and 20 μM (+)-ABA/0224/0304 compound or 0.1% Tween-20 and 0.05% DMSO (control) 14 days after sowing with an amount of 4 ml/pot; the leaf transpiration experiments of cottons were sprayed with a solution containing 0.1% tween-20 and 20 μM (+)-ABA/0224 compound or 0.1% Tween-20 and 0.05% DMSO, respectively, 25 days after sowing with an amount of 4 ml/pot; the leaf transpiration experiments of wheats were sprayed with a solution containing 0.1% tween-20 and 100 μM (+)-ABA/0224 compound or 0.1% Tween-20 and 0.05% DMSO (control) 18 days after sowing with an amount of 6 ml/pot. […]
# In this experiment, the temperature change of leaf surface was observed and recorded by an infrared camera, thus reflecting the strength of plant transpiration. […]
# wheat = assay: Soil drought experiment, wheat; conditions: 100 μM sprayed once every 3 days; 6 days of drought; FIG. 17
# Procedure: as §1, with “In the drought experiment of wheat, the wheat with the consistent growth condition 16 days after sowing was selected for the drought treatment, at the start of the drought, a solution with 0.1% Tween-20 and 100 μM (+)-ABA/0224 or 0.1% Tween-20 and 0.05% DMSO (control) was sprayed once, and then sprayed once every 3 days with a spray amount of 4 ml/pot. Meanwhile, the position of the pot was changed and the photos were taken 6 days after the drought.” left out
# [2] = 20 μM sprayed once, re-watering after 6 days of drought, FIG. 8
Compound,growth after drought and re-watering (soybean; [2]),growth after drought [1],survival/growth after drought [1],leaf temperature versus DMSO control (leaf transpiration) (cotton),growth after drought (wheat),other results
CCCN1C(=O)OC(C)(C)c2cc(NS(=O)(=O)Cc3c(F)c(F)c(C)c(F)c3F)ccc21 [Compound 0304],significantly better than that of the control group (DMSO) or that of the soybean treated with same concentration of ABA; also recorded: significantly better growth after re-watering than that in the DMSO-sprayed control group and the plants sprayed with the same concentration of ABA,,,,,
CCCN1C(=O)OCc2cc(NS(=O)(=O)Cc3c(F)c(F)c(C)c(F)c3F)ccc21 [Compound 0428],,exhibits a better growth condition than that in the control group and that sprayed with ABA; also recorded: significantly better than that of plants in DMSO-sprayed control group and plants sprayed with 5 μM (+)-ABA,,,,"growth after drought and re-watering (soybean; 50 μM sprayed once a day for two days, 9 days of drought, FIG. 14a): significantly better growth after re-watering than that in the DMSO-sprayed control group"
Cc1c(F)c(F)c(CS(=O)(=O)Nc2ccc3c(c2)C(C)OC(=O)N3CCCF)c(F)c1F (stereo not drawn) [Compound 0715],,,still grows normally; also recorded: still survived,,,
CCN1C(=O)OC(C)c2cc(NS(=O)(=O)Cc3c(F)c(F)c(C)c(F)c3F)ccc21 (stereo not drawn) [Compound 0706],,,still grows normally; also recorded: still survived,,,
CCCN1C(=O)OC(C)c2cc(NS(=O)(=O)Cc3c(F)c(F)c(C)c(F)c3F)ccc21 (stereo not drawn) [Compound 0224],significantly better than that of the control group (DMSO) or that of the soybean treated with same concentration of ABA; also recorded: significantly better growth after re-watering than that in the DMSO-sprayed control group and the plants sprayed with the same concentration of ABA,,still grows normally; also recorded: still survived,significantly reduce the transpiration rate of the cotton leaf; also recorded: still significant higher than that of plants in DMSO-sprayed control group,significantly better than that in the control group (DMSO); also recorded: remained upright,
"CC1=CC(=O)CC(C)(C)[C@@]1(O)/C=C/C(C)=C\C(=O)O [ABA, Abscisic Acid, reference compound]",,had no difference from that of plants in the DMSO-sprayed control group,,had no difference from that in the control group,significantly better than that in the control group (DMSO); also recorded: remained upright,
